# Laboratory results taken from US20060069132A1, “Azolecarboxamide herbicides” (priority 2004, published 2006).
# Assays:
# [1] = test system: ducksalad; experiment: Test B flooded paddy test; format: in vivo, Heteranthera limosa; conditions: 1000 g ai/ha, scale 0 to 100 (0 no effect, 100 complete control)
# How it was run: (§1)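 Formulated test chemicals went onto postemergence plants measuring 2 to 18 cm, at one to four leaves. For the paddy assay, species had reached two leaves. Scoring took place 13–15 days later by eye, relative to untreated plants, using 0 for no effect up to 100 for full control.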
# [2] = test system: blackgrass; experiment: Test B postemergence herbicide test; format: in vivo, Alopecurus myosuroides
# How it was run: as §1
# [3] = test system: barnyardgrass; experiment: Test B pre-/postemergence herbicide test; format: in vivo, Echinochloa crus-galli; conditions: for Plant response rating (0 to 100 scale), Barnyardgrass: 0 is no effect
# How it was run: (§2)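 Plants compared with untreated controls 13–15 days post-treatment and given a visual 0–100 injury score. Applications: preemergence to seeds; postemergence at 1- to 4-leaf (2–18 cm); paddy species flooded, 2-leaf stage. Vehicle non-phytotoxic, surfactant included.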
# [4] = test system: morningglory; experiment: Test B pre-/postemergence herbicide test; format: in vivo, Ipomoea coccinea; conditions: for Plant response rating (0 to 100 scale), Morningglory: 0 is no effect
# How it was run: as §2
# [5] = test system: Surinam grass; experiment: Test B pre-/postemergence herbicide test; format: in vivo, Urochloa decumbens; conditions: for Plant response rating (0 to 100 scale), Surinam Grass: 0 is no effect
# How it was run: (§3)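 Visual rating, 0 (no effect) to 100 (complete control), versus untreated controls after 13–15 d in greenhouse. Pre- and postemergence applications (postemergence plants 2–18 cm, 1–4 leaves); flooded paddy arm at 2-leaf stage. Compounds in non-phytotoxic solvent plus surfactant.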
# [6] = test system: barnyardgrass; experiment: Test B flooded paddy test; format: in vivo, Echinochloa crus-galli; conditions: 1000 g ai/ha, scale 0 to 100 (0 no effect, 100 complete control)
# How it was run: as §1
# [7] = test system: large crabgrass; experiment: Test B pre-/postemergence herbicide test; format: in vivo, Digitaria sanguinalis; conditions: for Plant response rating (0 to 100 scale), Crabgrass, Large: 0 is no effect
# How it was run: as §3
# [8] = test system: cocklebur; experiment: Test B pre-/postemergence herbicide test; format: in vivo, Xanthium strumarium; conditions: for Plant response rating (0 to 100 scale), Cocklebur: 0 is no effect
# How it was run: as §2
# [9] = test system: rice; experiment: Test B flooded paddy test; format: in vivo, Oryza sativa; conditions: 1000 g ai/ha, scale 0 to 100 (0 no effect, 100 complete control)
# How it was run: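 Read-out: visual comparison with controls, scored 0 to 100, where 100 means complete control and 0 no effect. Formulated chemicals were applied postemergence to plants 2–18 cm tall (1- to 4-leaf), or to flooded-paddy plants at the 2-leaf stage, then held 13 to 15 days under glass.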
# [10] = test system: small flower umbrella sedge; experiment: Test B flooded paddy test; format: in vivo, Cyperus difformis; conditions: 1000 g ai/ha, scale 0 to 100 (0 no effect, 100 complete control)
# How it was run: as §1
# [11] = test system: wheat; experiment: Test B postemergence herbicide test; format: in vivo, Triticum aestivum; parameters: key to Wheat plant response rating: 0 = no effect, 100 = complete control
# How it was run: (§4)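 After treating 2-leaf paddy plants or 2–18 cm postemergence plants (1 to 4 leaves) with formulated chemical, researchers kept them in a greenhouse for 13–15 days. Effects were judged visually versus controls: 0 indicates none, 100 total control.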
# [12] = test system: corn; experiment: Test B pre-/postemergence herbicide test; format: in vivo, Zea mays; conditions: for Plant response rating (0 to 100 scale), Corn: 0 is no effect
# How it was run: as §3
# [13] = test system: wild oat; experiment: Test B postemergence herbicide test; format: in vivo, Avena fatua
# How it was run: as §4
# [14] = test system: velvetleaf; experiment: Test B pre-/postemergence herbicide test; format: in vivo, Abutilon theophrasti; conditions: for Plant response rating (0 to 100 scale), Velvetleaf: 0 is no effect, preemergence
# How it was run: as §3
# [15] = test system: lambsquarters; experiment: Test B pre-/postemergence herbicide test; format: in vivo, Chenopodium album; conditions: for Plant response rating (0 to 100 scale), Lambsquarters: 0 is no effect
# How it was run: as §3
# [16] = 125 g ai/ha, visual rating, scale 0 (no effect) to 100 (complete control), postemergence
# [17] = postemergence, 500 g ai/ha, scale 0 to 100, 0 is no effect, 100 is complete control
# [18] = 125 g ai/ha, 100 is complete control, preemergence
# [19] = 500 g ai/ha, visual rating, 0 = no effect, 100 = complete control, preemergence
# [20] = 125 g ai/ha, 100 is complete control
# [21] = Postemergence, 500 g ai/ha, scale 0 (no effect) to 100 (complete control)
# [22] = postemergence, 125 g ai/ha, scale 0 to 100
# [23] = Postemergence, 125 g ai/ha, scale 0 (no effect) to 100 (complete control)
# [24] = 500 g ai/ha, scale 0 to 100, 0 no effect, 100 complete control, preemergence
structure (smiles),measurement,setting,value
C=CCNC(=O)c1cccc(NC(=O)c2cc(C(C)(C)C)nn2C)n1 [Compound 318],Ducksalad plant response rating,[1],70
same,Blackgrass plant response rating,[2]; [16],10
same,Blackgrass plant response rating,[2]; [17],10
same,"Plant response rating (0 to 100 scale), Barnyardgrass",[3]; [18],40
same,Barnyardgrass plant response rating,[3]; [16],40
same,"Plant response rating, Barnyardgrass",[3]; [19],90
same,Barnyardgrass plant response rating,[3]; [17],70
same,"Plant response rating (0 to 100 scale), Morningglory",[4]; [18],0
same,Morningglory plant response rating,[4]; [16],0
same,"Plant response rating, Morningglory",[4]; [19],30
same,Morningglory plant response rating,[4]; [17],80
same,"Plant response rating (0 to 100 scale), Surinam Grass",[5]; [18],0
same,Surinam Grass plant response rating,[5]; [16],10
same,"Plant response rating, Surinam Grass",[5]; [19],40
same,Surinam Grass plant response rating,[5]; [17],20
same,Barnyardgrass plant response rating,[6],70
same,"Plant response rating (0 to 100 scale), Crabgrass, Large",[7]; [18],10
same,"Crabgrass, Large plant response rating",[7]; [16],10
same,"Plant response rating, Crabgrass, Large",[7]; [19],90
same,"Crabgrass, Large plant response rating",[7]; [17],60
same,"Plant response rating (0 to 100 scale), Cocklebur",[8]; [18],0
same,Cocklebur plant response rating,[8]; [16],10
same,"Plant response rating, Cocklebur",[8]; [19],0
same,Cocklebur plant response rating,[8]; [17],80
same,Rice plant response rating,[9],40
same,"Sedge, Umbrella plant response rating",[10],80
same,Wheat plant response rating,[11]; [16],0
same,Wheat plant response rating,[11]; [17],10
same,"Plant response rating (0 to 100 scale), Corn",[12]; [18],0
same,Corn plant response rating,[12]; [16],20
same,"Plant response rating, Corn",[12]; [19],0
same,Corn plant response rating,[12]; [17],20
same,"Oat, Wild plant response rating",[13]; [16],0
same,"Oat, Wild plant response rating",[13]; [17],30
same,"Plant response rating (0 to 100 scale), Velvetleaf",[14]; [20],20
same,Velvetleaf plant response rating,[14]; [16],40
same,Velvetleaf plant response rating,[14]; [17],80
same,"Plant response rating (0 to 100 scale), Lambsquarters",[15]; [18],90
same,Lambsquarters plant response rating,[15]; [16],80
same,"Plant response rating, Lambsquarters",[15]; [19],100
same,Lambsquarters plant response rating,[15]; [17],80
CCc1nn(C(C)C)nc1C(=O)Nc1cccc(C(=S)N(C)C)c1 [Compound 409],Ducksalad plant response rating,[1],70
same,Blackgrass plant response rating,[2]; [21],40
same,Blackgrass plant response rating,[2]; [22],10
same,"Plant response rating (0 to 100 scale), Barnyardgrass",[3]; [18],90
same,Barnyardgrass plant response rating,[3]; [23],0
same,Barnyardgrass plant response rating,[3]; [21],0
same,"Plant response rating (0 to 100 scale), Morningglory",[4]; [18],60
same,Morningglory plant response rating,[4]; [21],70
same,Morningglory plant response rating,[4]; [22],0
same,"Plant response rating (0 to 100 scale), Surinam Grass",[5]; [18],90
same,Surinam Grass plant response rating,[5]; [21],30
same,Surinam Grass plant response rating,[5]; [22],10
same,Barnyardgrass plant response rating,[6],90
same,"Plant response rating (0 to 100 scale), Crabgrass, Large",[7]; [18],90
same,"Crabgrass, Large plant response rating",[7]; [21],10
same,"Crabgrass, Large plant response rating",[7]; [22],0
same,"Plant response rating (0 to 100 scale), Cocklebur",[8]; [18],10
same,Cocklebur plant response rating,[8]; [21],10
same,Cocklebur plant response rating,[8]; [22],0
same,Rice plant response rating,[9],70
same,"Sedge, Umbrella plant response rating",[10],90
same,Wheat plant response rating,[11]; [24],100
same,Wheat plant response rating,[11]; [21],10
same,Wheat plant response rating,[11]; [22],0
same,"Plant response rating (0 to 100 scale), Corn",[12]; [18],50
same,Corn plant response rating,[12]; [21],10
same,Corn plant response rating,[12]; [22],0
same,"Oat, Wild plant response rating",[13]; [21],10
same,"Oat, Wild plant response rating",[13]; [22],0
same,"Plant response rating (0 to 100 scale), Velvetleaf",[14]; [20],30
same,Velvetleaf plant response rating,[14]; [21],0
same,Velvetleaf plant response rating,[14]; [22],0
same,"Plant response rating (0 to 100 scale), Lambsquarters",[15]; [18],100
same,Lambsquarters plant response rating,[15]; [21],70
same,Lambsquarters plant response rating,[15]; [22],30
CCn1nc(C(C)(C)C)cc1C(=O)Nc1cccc(OS(=O)(=O)CC)c1 [Compound 408],Ducksalad plant response rating,[1],90
same,Blackgrass plant response rating,[2]; [21],80
same,Blackgrass plant response rating,[2]; [22],40
same,"Plant response rating (0 to 100 scale), Barnyardgrass",[3]; [18],70
same,Barnyardgrass plant response rating,[3]; [23],20
same,Barnyardgrass plant response rating,[3]; [21],40
same,"Plant response rating (0 to 100 scale), Morningglory",[4]; [18],20
same,Morningglory plant response rating,[4]; [21],30
same,Morningglory plant response rating,[4]; [22],10
same,"Plant response rating (0 to 100 scale), Surinam Grass",[5]; [18],30
same,Surinam Grass plant response rating,[5]; [21],30
same,Surinam Grass plant response rating,[5]; [22],20
same,Barnyardgrass plant response rating,[6],70
same,"Plant response rating (0 to 100 scale), Crabgrass, Large",[7]; [18],90
same,"Crabgrass, Large plant response rating",[7]; [21],50
same,"Crabgrass, Large plant response rating",[7]; [22],30
same,"Plant response rating (0 to 100 scale), Cocklebur",[8]; [18],0
same,Cocklebur plant response rating,[8]; [21],70
same,Cocklebur plant response rating,[8]; [22],60
same,Rice plant response rating,[9],80
same,"Sedge, Umbrella plant response rating",[10],90
same,Wheat plant response rating,[11]; [24],80
same,Wheat plant response rating,[11]; [21],30
same,Wheat plant response rating,[11]; [22],20
same,"Plant response rating (0 to 100 scale), Corn",[12]; [18],10
same,Corn plant response rating,[12]; [21],10
same,Corn plant response rating,[12]; [22],10
same,"Oat, Wild plant response rating",[13]; [21],50
same,"Oat, Wild plant response rating",[13]; [22],30
same,"Plant response rating (0 to 100 scale), Velvetleaf",[14]; [20],50
same,Velvetleaf plant response rating,[14]; [21],70
same,Velvetleaf plant response rating,[14]; [22],30
same,"Plant response rating (0 to 100 scale), Lambsquarters",[15]; [18],100
same,Lambsquarters plant response rating,[15]; [21],100
same,Lambsquarters plant response rating,[15]; [22],90
